“Also recorded” adds a separate entry of the source.
Assays:
Format in all cases: cell-based, human
GINS organoids [1] = assay: Static glucose-stimulated insulin secretion (GSIS); conditions: day-18 organoids donor #6; 10 nM glibenclamide or 0.5 mM diazoxide
Procedure: Ten to twenty GINS organoids were sampled for each group. Organoids were washed with RPMI-1640 no nutrient medium (RPMIN, MyBioSource, MBS652918), and equilibrated in 3.3 mM glucose RPMIN for 2 hours. Organoids were incubated in low-glucose RPMIN for 1 hour, and supernatant was collected. Organoids were then incubated in high-glucose RPMIN for 1 hour, and supernatant was collected. For sequential glucose challenge, organoids were washed 2 times in RPMIN prior to the next stimulation. Secreted insulin was measured using the Stellux Chemi Human Insulin ELISA (ALPCO Diagnostics, 80-INSHU-CH10).

Ngn3ER/PM-hGSCs = assay: Supplement screen to formulate serum-free medium for GINS differentiation; conditions: day-7 post differentiation; for INS mRNA levels: single supplement in serum-free basal medium
Procedure: Ngn3ER/PM-hGSCs were seeded 5 days prior to differentiation in 96-well plate. To start differentiation, 1 μM 4-OH-TAM was added and incubated for 2 days. The culture medium was then changed to serum-free basal medium with one supplement and Doxycycline to activate Pdx1-Mafa expression. The basal serum-free medium for screens was prepared as follows: advanced DMEM/F12 (Thermo Fisher Scientific, 12634010) was supplemented with 10 mM HEPES (Thermo Fisher Scientific, 15-630-080), 1× GlutaMAX (Thermo Fisher Scientific, 35050061), 1× B-27 (Themo Fisher Scientific, 17504044), 1× N-2 (Thermo Fisher Scientific, 17502048), 25 μM Primocin, and 500 μM N-Acetyl-L-Cysteine (NAC) (Sigma-Aldrich, A9165). Seven days after supplement treatment, the following were (1) spontaneous clustering of nascent GINS cells by live imaging of mCherry^+ cells, and (2) qPCR of INS mRNA levels. Then multiple b-cell markers with qPCR on samples treated with Nicotinamide, Y-27632 and A8301 were analyzed.

GINS organoids [2] = assay: Dynamic GSIS with perifusion; conditions: day-21 organoids, two donors; 100 ng/mL Liraglutide in 20 mM glucose; 30 mM KCl in 2 mM glucose
Procedure: Twenty GINS organoids were sampled for each group. Organoids were washed with RPMIN and equilibrated in 1 mM glucose RPMIN for 2 hours at 37° C. incubator. The assay was performed in RPMIN on a temperature-controlled (37° C.) perifusion system (Biorep Technologies). Organoids were loaded in chambers and perfused at a flow rate of 100 μL/min in the following steps: (1) 48 min in 1 mM glucose, (2) 24 min in 2 mM glucose. (3) 36 min in 20 mM glucose, (4) 24 min in 20 mM glucose with 100 ng/mL Liraglutide (Cayman, 24727), (5) 48 min in 2 mM glucose, (6) 20 min in 2 mM glucose with 30 mM KCl. Secreted insulin was measured using the Stellux Chemi Human Insulin ELISA.

COc1ccc(Cl)cc1C(=O)NCCc1ccc(S(=O)(=O)NC(=O)NC2CCCCC2)cc1 [Glibenclamide]
insulin secretion response of GINS organoids to the drug (GINS organoids [1]): responded

CC1=NS(=O)(=O)c2cc(Cl)ccc2N1 [Diazoxide]
insulin secretion response of GINS organoids to the drug (GINS organoids [1]): responded

NC(=O)c1cccnc1 [Nicotinamide, 3-pyridinecarboxamide]
INS mRNA levels (Ngn3ER/PM-hGSCs; vs no supplement control): significantly promoted; also recorded: significantly up-regulated

[Cl-].[K+] [KCl]
insulin secretion response of GINS cells to the agent, dynamic GSIS (GINS organoids [2]): responded robustly

C[C@@H](N)[C@H]1CC[C@H](C(=O)Nc2ccncc2)CC1.Cl.Cl [Y-27632, trans-4-[(1R)-1-aminoethyl]-N-4-pyridinyl-Cyclohexanecarboxamide, dihydrochloride]
INS mRNA levels (Ngn3ER/PM-hGSCs; vs no supplement control, dihydrochloride): significantly promoted; also recorded: significantly up-regulated

Cc1cccc(-c2nn(C(=S)Nc3ccccc3)cc2-c2ccnc3ccccc23)n1 [A8301, 3-(6-methyl-2-pyridinyl)-N-phenyl-4-(4-quinolinyl)-1H-pyrazole-1-carbothioamide]
spontaneous aggregation (clustering) of nascent GINS cells (Ngn3ER/PM-hGSCs; mCherry live imaging): stimulated; also recorded: most observable clustering effect | expression of several key b-cell transcription factors (Ngn3ER/PM-hGSCs; qPCR, vs no supplement control): stimulated
